{"source": "patent US20090155200A1", "about": "“Methods of promoting cartilage healing or cartilage integration” (priority 2004, published 2009)", "origin": "cited, not measured here", "test_system": "articular cartilage defect", "details": "pre-treatment with trypsin; Chen et al. 2000", "data": [{"substance": "trypsin", "values": [{"measurement": "integration and remodeling of implanted cartilage", "result": "improved"}]}]}
